Experimental data published in PubChem BioAssay (NCI).
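Method: 48-hour compound exposure of cells in 96-well plates, five concentrations, linear interpolation of endpoints. GI50: concentration for 50% inhibition of growth. TGI: total growth inhibition.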

Experiments:
Assay in all cases: NCI anticancer screen, dose series, 48 h
[1] = tested on: ACHN renal
[2] = tested on: SW-620 colon
[3] = tested on: OVCAR-4 ovarian
[4] = tested on: HCT-116 colon
[5] = tested on: UACC-257 melanoma
[6] = tested on: MCF7 breast
[7] = tested on: KM12 colon
[8] = tested on: SK-OV-3 ovarian
[9] = tested on: NCI-H522 lung
[10] = tested on: SK-MEL-5 melanoma

| Structure (SMILES) | GI50 [1] | TGI [1] | GI50 [2] | TGI [2] | GI50 [3] | TGI [3] | GI50 [4] | TGI [4] | GI50 [5] | TGI [5] | GI50 [6] | TGI [6] | GI50 [7] | TGI [7] | GI50 [8] | TGI [8] | GI50 [9] | TGI [9] | GI50 [10] | TGI [10] |
| --- | --- | --- | --- | --- | --- | --- | --- | --- | --- | --- | --- | --- | --- | --- | --- | --- | --- | --- | --- | --- |
| COc1ccccc1/C=C/C(=O)/C=C/c1ccccc1OC | 1.91 µM | 3.49 µM | 1.51 µM | 3.37 µM | 1.51 µM | 16.6 µM | 1.27 µM | 2.62 µM | 1.69 µM | 3.72 µM | 0.37 µM | 3.81 µM | 1.57 µM | 3.39 µM | 2.94 µM | 8.66 µM | 1.67 µM | 3.26 µM | 1.5 µM | 2.87 µM |
| CCOC(=O)Nc1nc2c(C)cccc2s1 | 74.6 µM | > 100 µM | 64.7 µM | > 100 µM | 43.2 µM | > 100 µM | 45.3 µM | > 100 µM | 39.8 µM | > 100 µM | 29.2 µM | > 100 µM | 56.8 µM | > 100 µM | > 100 µM | > 100 µM | 47.8 µM | > 100 µM | 28 µM | 91.5 µM |
| Cc1cc(N(CCCl)CCCl)ccc1/C=N/NC(=O)Cc1cc(=O)oc2cc(O)ccc12 | – | 40.3 µM | – | 66.9 µM | – | > 100 µM | – | 40.5 µM | – | 58.1 µM | – | 20.4 µM | – | 36.6 µM | – | – | – | 31.5 µM | – | 21.1 µM |
| COc1ccc2c(c1)/C(=C/c1cc(OC)c(OC)c(OC)c1)C(=O)N2C | 3.6 µM | > 39.5 µM | 1.59 µM | 8.66 µM | 4.66 µM | > 77.5 µM | 2.56 µM | 13.3 µM | 7.88 µM | > 80.4 µM | 1.83 µM | > 25.8 µM | 1.76 µM | 4.95 µM | 3.2 µM | 12.5 µM | 2.24 µM | 6.39 µM | 2.76 µM | 12.6 µM |
| NC1CCC(N[C@@H]2C[C@H]2c2ccccc2)CC1 (some centres undefined) | > 100 µM | > 100 µM | > 100 µM | > 100 µM | > 100 µM | > 100 µM | > 100 µM | > 100 µM | > 100 µM | > 100 µM | > 100 µM | > 100 µM | > 100 µM | > 100 µM | > 100 µM | > 100 µM | > 100 µM | > 100 µM | > 100 µM | > 100 µM |
| COC1=C(Br)C(=O)C2=C(C1=O)C1C3=C(C(=O)C=CC3=O)C2c2ccccc21 (centres undefined) | 14.8 µM | 34.5 µM | 4.56 µM | > 100 µM | 13.7 µM | 63.7 µM | 5.91 µM | > 100 µM | 38.2 µM | > 100 µM | 22.7 µM | > 100 µM | 12.4 µM | 32.1 µM | 45.6 µM | > 100 µM | 3.26 µM | 14.4 µM | 16 µM | 48.9 µM |
